Values quoted from earlier work, collected in US6663884B2, “Method of detoxifying the egg of puffer fish for creating healthy foodstuffs and the resulting product” (priority 2002, dated 2003).

NC1=N[C@H](O)[C@H]2[C@H]3O[C@]4(O)O[C@@H]([C@@H](O)[C@@]2(N1)[C@@H]4O)[C@]3(O)CO [tetrodotoxin]
solubility in water: soluble in water
